{"source": "the SangsterLogP compilation"}
{"experiment": "method code SF, from DOI: 10.1021/jf00073a025"}
{"smiles": "CNC(=O)O/N=C1/CSCS1", "logP": 0.51}
{"smiles": "CNC(=O)O/N=C1\\SCOC1C(C)C", "note": "(centres undefined)", "logP": 1.48}
{"smiles": "CCCC1OCS/C1=N\\OC(=O)NC", "note": "(centres undefined)", "logP": 1.52}
{"smiles": "CNC(=O)O/N=C1/SC(C)OC1C", "note": "(centres undefined)", "logP": 0.96}
{"smiles": "CNC(=O)ON=C1SCSC1(C)C", "logP": 1.31}
{"smiles": "CNC(=O)O/N=C1/COCS1", "logP": 0.06}
{"smiles": "CNC(=O)ON=C1CSC(C)(C)S1", "logP": 1.33}
{"smiles": "CNC(=O)ON=C1SCOC1C", "note": "(stereo in doubt)", "logP": 0.46}
{"smiles": "CNC(=O)O/N=C1/SCOC1(C)C", "logP": 0.82}
{"smiles": "CNC(=O)O/N=C1\\SCOC1CCOC", "note": "(centres undefined)", "logP": 0.51}
{"smiles": "CNC(=O)ON=C1CSCCS1", "logP": 0.49}
{"smiles": "CNC(=O)ON=C1COCCS1", "note": "(stereo in doubt)", "logP": -0}
{"smiles": "CNC(=O)O/N=C1\\SCCSC1(C)C", "logP": 1.51}
{"smiles": "CNC(=O)O/N=C1\\SCSC1C", "note": "(centres undefined)", "logP": 0.91}
